The subject of this assay is LG0703-F948-PDC complex spheroid viability. In words: Anticancer human tumor LG0703-F948-PDC patient-derived lung adenocarcinoma cell line growth inhibition. The note with it: for viability, T/C: stronger effect = lower value. An excerpt: Multicellular complex tumor spheroid response to LSD1 Inhibitor Iadademstat in combination with a variety of drugs and investigational agents in selected tumor cell lines
The current study was undertaken to assess response to LSD1 inhibitors in combination with standard-of-care drugs and investigational agents in solid tumor complex spheroid models as well as in the K-562 leukemia. Complex spheroids include a stromal component modeled by human endothelial cells (HUVEC) and fibroblasts modeled by human mesenchymal stem cells (MSCs). The concentration ranges selected for each drug and investigational agent were based upon clinically achievable concentrations if the clinical Cmax of the agent was known.
Compounds. The drugs and investigational agents used in this study are listed on Table 1. All of the agents used, including staurosporine (NSC755774) and gemcitabine (NSC613327), were obtained from the Developmental Therapeutics Program, NCI. FDA-approved anticancer drugs are available from the NCI at http://dtp.nci.nih.gov/branches/dscb/oncology_drugset_explanation.html. Drugs and investigational agents were >95% pure by proton nuclear magnetic resonance (NMR) and liquid chromatography/mass spectrometry (LC/MS). Stock solutions were prepared at 400x in DMSO, stored at -70 degrees C, and diluted in fresh medium prior to their use. The final concentration of DMSO in cell culture wells never exceeded 0.25% (v/v). The FDA-approved anticancer drug set is available from the Developmental Therapeutics Program at https://dtp.cancer.gov/organization/dscb/obtaining/available_plates.htm. All drugs and investigational agents were tested over a range starting from a high concentration at or near the clinical Cmax and decreasing in half-log increments. If the clinical Cmax for an agent had not been determined, the highest concentration tested was 10 microM.
Cell Lines. The patient-derived cancer cell (PDC) lines: 292921-168-R-J2-PDC, K24384-001-R-PDC, and 521955-158-R2-J5-PDC pancreatic carcinomas, 556581-035-R-J1 ovarian carcinoma, 324938-238-R-J1-PDC, 855422-203-R-J1-PDC and 883617-216-R-J1-PDC urothelial bladder carcinomas, 743489-274-T-PDC renal cell carcinoma, 138582-R-J1 Merkel cell tumor, K60290-347-R-J1 and K57222-313-R-J1-PDC glioblastomas, 653999-131-R-J2-PDC, LG0703-F948-PDC, and 349418-098-R-PDC non-small cell lung carcinomas, 885512-296-R-J2-PDC, 171881-019-R-J1-PDC breast carcinomas and 186277-243-T-J2-PDC and 233499-124-R-J2-PDC colon carcinomas were obtained from the NCI Patient-Derived Models Repository (PDMR, https://pdmr.cancer.gov). The established cell lines NCI/ADR-RES (RRID:CVCL_14520 and OVCAR-5 (RRID:CVCL_1628) ovarian carcinomas, 786-O (RRID:CVCL_1051) and A498 (RRID:CVCL_A498) renal cell carcinoma, NCI-H211 (ATCC, cat. CRL-5824; RRID:CVCL_1529), NCI-H196 (ATCC, cat. CRL-5823, RRID:CVCL_1509), SW 1271 (ATCC, cat. CRL-2177, RRID:CVCL_1716) and NCI-H1876 (ATCC, cat. CRL-5902, RRID:CVCL_1503) small cell lung carcinomas, MDA-MB-231 (RRID:CVCL_0062) and MDA-MB-468 (RRID:CVCL_0419)breast carcinomas (10-12). Pooled donor human umbilical vein endothelial cells (HUVEC, Lonza, cat. CC-2519) and human mesenchymal stem cells (hMSC, Lonza, cat. PT-2501) were purchased from Lonza (Walkersville, MD).
Cell Culture. All cells were maintained in an incubator at 37 degrees C and 5% CO2 with 95% humidity. The PDC lines were cultured according to standard operating procedures established by the NCI PDMR (https://pdmr.cancer.gov). Briefly all PDCs were thawed and cultured in Matrigel-coated flasks prepared with a working solution of 1X Ham's F-12 nutrient mix, without supplementation (Invitrogen, Waltham, MA, cat. 11765054), 100 U/mL penicillin-streptomycin (Invitrogen, cat. 15140122), and 2.5% Matrigel (Corning Inc., Corning, NY, cat. 354248) for the first three passages. […]

Each structure is given as a SMILES string. Values joined by “and” are separate entries in the source; they are usually repeats but may differ in a detail not shown here. Equal entries are not always repeated. Where only a bound is given, the exact number is not on record here.
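Further: spheroids exposed to agents for seven days before readout.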
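Wherever viability, T/C is given: 100% = DMSO vehicle control wells as normalization base.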

On to `CC(C)c1c(-c2ccccc2)nc2c(C#N)c[nH]n2c1=O`, for which the viability, T/C was 106% and 93% (compound 0.0316 µM); 91.8% and 84.6% (compound 0.1 µM); 84.1% and 102% (compound 0.316 µM); 100% and 86.9% (compound 1 µM); 89.7% and 91% (compound 3.16 µM); 75.7% and 79.8% (compound 10 µM). For the same compound, the IC50 (curve of compound) is > 10000 nM.

On to `CC1(C)CCC(CN2CCN(c3ccc(C(=O)NS(=O)(=O)c4ccc(NCC5CCOCC5)c([N+](=O)[O-])c4)c(Oc4cnc5[nH]ccc5c4)c3)CC2)=C(c2ccc(Cl)cc2)C1`, for which the viability, T/C runs as follows: (compound 0.0316 µM) 87% and 94.2%; (compound 0.1 µM) 98.5% and 93.8%; (compound 0.316 µM) 91.7% and 89.7%; (compound 1 µM) 96.8% and 84.2%; (compound 3.16 µM) 36.5% and 50.3%; (compound 10 µM) 3.78% and 4.3%. Moreover, the IC50 (curve of compound) was 2410 nM and 3200 nM.

Take `CC1COCCN1c1cc(C2(S(C)(=N)=O)CC2)nc(-c2ccnc3[nH]ccc23)n1` (stereo not given): the viability, T/C was 105% and 90.8% (compound 0.0316 µM); 101% and 105% (compound 0.1 µM); 104% and 100% (compound 0.316 µM); 87.4% and 81.6% (compound 1 µM); 63% and 65.7% (compound 3.16 µM); 24.9% and 20.9% (compound 10 µM). Also, the IC50 (curve of compound) is 4640 nM and 4620 nM.

`CCN(c1cc(-c2ccc(CN3CCOCC3)cc2)cc(C(=O)NCc2c(C)cc(C)[nH]c2=O)c1C)C1CCOCC1`: the viability, T/C (compound 0.00949 µM) is 119% and 92.8%; the viability, T/C (compound 0.03 µM) is 97.8% and 90.4%; the viability, T/C (compound 0.0949 µM) is 101% and 97.6%; the viability, T/C (compound 0.3 µM) was 101% and 90.8%; the viability, T/C (compound 0.949 µM) was 105% and 96%; the viability, T/C (compound 3 µM) was 102% and 96.7%. Further, the half-inhibitory concentration (IC50) (curve of compound) is > 3000 nM.

Turning to `COc1cc(C2c3cc4c(cc3C(OC3OC5COC(C)OC5C(O)C3O)C3COC(=O)C23)OCO4)cc(OC)c1O` (stereo not given), the viability, T/C reads like this: (compound 0.00949 µM) 91.2% and 110%; (compound 0.03 µM) 86.7% and 112%; (compound 0.0949 µM) 83% and 88.5%; (compound 0.3 µM) 77% and 84.2%; (compound 0.949 µM) 75% and 81.7%; (compound 3 µM) 49.3% and 59.2%. Moreover, the IC50 (curve of compound) was > 3000 nM.

Turning to `COc1ccc([C@@H](O)c2cc(-c3ncnc4cc(N5CCOCC5)ccc34)c(F)cc2Cl)nn1`, the viability, T/C was 96.8% and 94.9% (compound 0.0316 µM); 95.5% and 89% (compound 0.1 µM); 83.9% and 78.1% (compound 0.316 µM); 64.1% and 62.8% (compound 1 µM); 20.1% and 24% (compound 3.16 µM); 3.89% and 4.14% (compound 10 µM). In addition, the IC50 (curve of compound) is 1400 nM and 1380 nM.

As for `NC1CC1c1ccc(-c2cccc(O)c2)cc1` (stereo not given), the viability, T/C is, setting by setting: (compound 0.1 µM) 94.9% and 98.4%; (compound 3.16 µM) 99.9% [middle of 24 runs]. In addition, the IC50 (compound alone, run of 02/21/2022) is > 10000 nM.

Turning to `NC1CCC(NC2CC2c2ccccc2)CC1` (stereo not given), the viability, T/C (compound 0.316 µM) is 99.4% and 101% and 110%. Moreover, for the setting “compound alone, run of 02/15/2022”, the concentration for half-maximal inhibition (IC50) was > 10000 nM.

Turning to `NS(=O)(=O)OCC1CC(n2ccc3c(NC4CCc5ccccc54)ncnc32)CC1O` (stereo not given), the viability, T/C is 103% and 93.6% (compound 0.00949 µM); 110% and 98.5% (compound 0.03 µM); 102% and 92.3% (compound 0.0949 µM); 74% and 62.3% (compound 0.3 µM); 33.3% and 38.5% (compound 0.949 µM); 15.6% and 20.2% (compound 3 µM). The 50% inhibitory concentration (IC50) (curve of compound) is 590 nM and 545 nM.

Regarding `Nc1ccccc1NC(=O)c1ccc(CNC(=O)OCc2cccnc2)cc1`, the viability, T/C by setting is: (compound 0.00949 µM) 100% and 75.3%; (compound 0.03 µM) 101% and 76.5%; (compound 0.0949 µM) 68.7% and 63.2%; (compound 0.3 µM) 21.4% and 17.3%; (compound 0.949 µM) 1.46% and 1.45%; (compound 3 µM) 0.48% and 0.84%. Also, under “curve of compound”, the 50% inhibitory concentration (IC50) is 151 nM and 132 nM.

On to `O=C(C=Cc1cccc(S(=O)(=O)Nc2ccccc2)c1)NO`, for which the viability, T/C is 94.2% and 95.1% (compound 0.00949 µM); 90.9% and 90.4% (compound 0.03 µM); 43.7% and 43.1% (compound 0.0949 µM); 11.7% and 12.1% (compound 0.3 µM); 1.64% and 1.58% (compound 0.949 µM); 0.25% and 0.32% (compound 3 µM). Further, the IC50 (curve of compound) was 83.8 nM and 82.8 nM.

For the compound `O=C(c1cc(Cc2n[nH]c(=O)c3ccccc23)ccc1F)N1CCN(C(=O)C2CC2)CC1`, the viability, T/C was 84.5% and 107% (compound 0.0316 µM); 97.1% and 103% (compound 0.1 µM); 86.5% and 98.2% (compound 0.316 µM); 93.8% and 106% (compound 1 µM); 85.7% and 85.5% (compound 3.16 µM); 65.5% and 74.2% (compound 10 µM). For the setting “curve of compound”, the IC50 is > 10000 nM.

In general, viability, T/C refers to the result in the treated group divided by that in the control group, in per cent. One may read the IC50 as the concentration needed to halve the response being measured.

(Values after PubChem BioAssay AID1918952 (Molecular Pharmacology Branch, DTP, NCI, 2023).)
